Results on 19 molecules are retold here after patent US5691373A, “Nonpeptide endothelin antagonists I” (Warner-Lambert Company, priority 1995, dated 1997).

One experiment addresses T1, ETB (Rattus norvegicus, UniProt P21451).
T1 sequence (P21451 27-442): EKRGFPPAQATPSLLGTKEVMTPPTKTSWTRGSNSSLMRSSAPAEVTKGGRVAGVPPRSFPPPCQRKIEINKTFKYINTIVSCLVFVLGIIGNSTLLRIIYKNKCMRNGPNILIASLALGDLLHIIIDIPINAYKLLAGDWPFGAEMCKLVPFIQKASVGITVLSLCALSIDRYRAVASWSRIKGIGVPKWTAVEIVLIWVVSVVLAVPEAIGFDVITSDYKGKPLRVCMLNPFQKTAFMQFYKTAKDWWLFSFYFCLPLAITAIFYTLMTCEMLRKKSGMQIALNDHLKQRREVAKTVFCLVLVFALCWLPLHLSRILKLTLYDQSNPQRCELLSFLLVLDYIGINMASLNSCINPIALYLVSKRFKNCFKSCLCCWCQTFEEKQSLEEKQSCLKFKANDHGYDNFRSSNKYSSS

Experiment [1] concerns the target T2, ETA (Oryctolagus cuniculus, UniProt A5A8K3).
T2 sequence (A5A8K3 21-427): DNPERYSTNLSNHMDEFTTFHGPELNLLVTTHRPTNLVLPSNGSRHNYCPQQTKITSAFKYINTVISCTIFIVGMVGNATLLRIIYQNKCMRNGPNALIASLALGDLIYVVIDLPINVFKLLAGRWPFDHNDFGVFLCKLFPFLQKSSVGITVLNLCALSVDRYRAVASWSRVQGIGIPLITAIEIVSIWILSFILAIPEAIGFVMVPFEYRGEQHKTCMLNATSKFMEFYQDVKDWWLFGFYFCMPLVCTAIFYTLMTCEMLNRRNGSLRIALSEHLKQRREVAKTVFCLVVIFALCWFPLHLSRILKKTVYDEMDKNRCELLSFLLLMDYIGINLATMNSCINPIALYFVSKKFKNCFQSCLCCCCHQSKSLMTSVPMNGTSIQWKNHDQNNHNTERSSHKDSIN
Experimental: The cells used were rabbit renal artery vascular smooth muscle cells grown in a 48-well dish (1 cm^2) (confluent cells).
The growth media was Dulbecco's Modified Eagles/Ham's F12 which contained 10% fetal bovine serum and antibiotics (penicillin/streptomycin/fungizone).
Second, remove the assay buffers, place the dish on ice, and add 150 μL of cold assay buffer described above to each well. […] Next, place dish in a 37° C., water bath for about 2 hours and gently agitate the dish every 15 minutes. Discard the radioactive incubation mixture in the sink and wash wells 3 times with 1 mL of cold phosphate buffered saline.

For experiment [2], the target named is T2, ETA. The source holds these as a separate data set.
The next experiment addresses T3, human ETB receptor (Homo sapiens, UniProt P24530).
T3 construct: expressed in transfected cells; host or cells: CHO-K1 cells, pRc-CMW (so in the source) expression vector, electroporation; membranes used
T3 sequence (P24530 27-442): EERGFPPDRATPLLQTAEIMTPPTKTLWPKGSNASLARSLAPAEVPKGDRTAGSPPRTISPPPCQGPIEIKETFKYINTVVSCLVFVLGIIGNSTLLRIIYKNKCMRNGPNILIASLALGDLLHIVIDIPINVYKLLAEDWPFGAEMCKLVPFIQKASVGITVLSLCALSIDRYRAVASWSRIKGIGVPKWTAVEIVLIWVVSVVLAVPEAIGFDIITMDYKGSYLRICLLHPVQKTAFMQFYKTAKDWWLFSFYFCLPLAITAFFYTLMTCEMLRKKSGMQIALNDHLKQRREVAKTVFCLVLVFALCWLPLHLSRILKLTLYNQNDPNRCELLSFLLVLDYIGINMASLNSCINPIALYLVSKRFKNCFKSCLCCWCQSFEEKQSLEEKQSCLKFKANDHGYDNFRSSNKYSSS
The experiment can be described thus: ERBA-B: [125I]-ET-1 binding, recombinant human ETB receptor expressed in CHO-K1 cells.

In experiment [3] the target is T2, ETA. Description: VERA-A: antagonism of ET-1 stimulated vasoconstriction in the rabbit femoral artery (ETA). Format: cell-based. The method, then: Male New Zealand rabbits were killed by cervical dislocation and exsanguination. Femoral and pulmonary arteries were isolated, cleaned of connective tissue, and cut into 4-mm rings. The endothelium was denuded by placing the rings over hypodermic tubing (32 gauge for femoral rings and 28 gauge for pulmonary rings, Small Parts, Inc, Miami, Fla.) and gently rolling them. […] Resting tension was adjusted to 3.0 g for femoral and 4.0 g pulmonary arteries; the rings were left for 90 minutes to equilibrate.

Setting [4] is: ERBA-A IC50, [125I]-ET-1, rabbit renal artery vascular smooth muscle cells.
The mark [5] stands for this setting: human cloned ETB receptor, read-out: ERBA-B IC50, human cloned receptor data.
Where [6] appears, read: ET-1, rabbit femoral artery, read-out: VERA-A pA2 (converted).
The mark [7] stands for this setting: read-out: ERBA-A IC50, [125I]-ET-1, rabbit renal artery vascular smooth muscle cells.
Where [8] appears, read: read-out: AAR-A, ET-1 (0.3 nM) stimulated arachidonic acid release.

Molecules are shown by their SMILES. Like-named read-outs stand apart in the source and are kept apart here.

Consider `COc1ccc(C2(O)OC(=O)C(c3ccc4c(c3)OCO4)=C2Cc2cccc(Cl)c2)cc1` (centres unmarked) [Example 75, 3-Benzo[1,3]dioxol-5-yl-4-(3-chlorobenzyl)-5-hydroxy-5-(4-methoxyphenyl)-5H -furan-2-one], for which the IC50 at ETB was 1200 nM; against ETA [1] (setting [4]) it was 16 nM; against ETA [2], 71 nM.

For `COc1ccc(C2(O)OC(=O)C(c3cc(OC)cc(OC)c3)=C2Cc2cccc(OC)c2)cc1` (centres unmarked) [Example 130, 3-(3,5-Dimethoxyphenyl)-5-hydroxy-4-(3-methoxybenzyl)-5-(4-methoxyphenyl)-5 H-furan-2-one], the IC50 on human ETB receptor (setting [5]) was found to be 1200 nM; against ETA [1] (setting [4]), 97 nM; against ETA [2] it was 30 nM. Also, the Kb at ETA [3] (setting [6]) is 200 nM.

For the molecule `CCCOc1cccc(CC2=C(c3cc(OC)cc(OC)c3)C(=O)OC2(O)c2ccc(OC)cc2)c1` (centres unmarked) [Example 126, 3-(3,5-Dimethoxyphenyl)-5-hydroxy-5-(4-methoxyphenyl)-4-(3-propoxybenzyl)-5 H-furan-2-one], the figures for the IC50 on human ETB receptor (setting [5]), against ETA [1] (setting [4]) and against ETA [2] were 1500 nM, 10 nM and 86 nM, respectively. Also, the Kb on ETA [3] (setting [6]) was 200 nM.

On to `COc1ccc(C2(O)OC(=O)C(c3ccc4c(c3)OCO4)=C2Cc2cc(OC)c(OC)c(OC)c2)cc1C` (centres unmarked) [Example 383, 3-Benzo[1,3]dioxol-5-yl-5-hydroxy-5-(4-methoxy-3-methyl-phenyl)-4-(3,4,5-trimethoxy-benzyl)-5H-furan-2-one], for which the results for the IC50 on human ETB receptor (setting [5]), against ETA [1] (setting [4]) and at ETA [2] were 290 nM, 0.5 nM and 7400 nM, respectively.

Take `COc1ccc(C2(O)OC(=O)C(c3ccc4c(c3)OCO4)=C2Cc2ccccc2)cc1OC` (centres unmarked) [Example 190, 3-Benzo[1,3]dioxol-5-yl-4-benzyl-5-(3,4-dimethoxyphenyl)-5-hydroxy-5H-furan-2-one]: the IC50 turned out to be 750 nM on ETB, 65 nM against ETA [1] (setting [4]) and 780 nM against ETA [2].

Turning to `COc1ccc(C2(O)OC(=O)C(c3ccc4c(c3)OCO4)=C2CC2CCCCC2)cc1` (centres unmarked) [Example 221, 3-Benzo[1,3]dioxol-5-yl-4-cyclohexylmethyl-5-hydroxy-5-(4-methoxyphenyl)-5H -furan-2-one], the figures for the IC50 on human ETB receptor (setting [5]), on ETA [1] (setting [7]) and at ETA [2] (setting [8]) were 240 nM, 20 nM and 120 nM, respectively. On ETA [3] (ET-1, rabbit femoral artery), the “VERA-A pA2” value is 6.4.

With `COc1ccc(C2(O)OC(=O)C(c3ccc4c(c3)OCO4)=C2Cc2ccc(NC(C)=O)cc2)cc1C` (centres unmarked) [Example 384, N-{4-[4-Benzo[1,3]dioxol-5-yl-2-hydroxy-2-(4-methoxy-3-methyl-phenyl)-5-oxo-2,5-dihydro-furan-3-ylmethyl]-phenyl}-acetamide], the results for the IC50 at human ETB receptor (setting [5]), against ETA [1] (setting [4]) and on ETA [2] were 760 nM, 1 nM and 0.21 nM, respectively. Also, the Kb at ETA [3] (setting [6]) is 50.1 nM.

On to `COc1ccc(C2(O)OC(=O)C(c3ccc4c(c3)OCO4)=C2Cc2ccc(C)cc2)cc1` (centres unmarked) [Example 76], for which the results for the IC50 against ETB, on ETA [1] (setting [4]) and against ETA [2] were 390 nM, 50 nM and 520 nM, respectively.

Consider `COc1ccc(C2(O)OC(=O)C(c3cc(OC)cc(OC)c3)=C2Cc2cc(OC)c(OC)c(OC)c2)cc1` (centres unmarked) [Example 388, 3-(3,5-Dimethoxy-phenyl)-5-hydroxy-5-(4-methoxyphenyl)-4-(3,4,5-trimethoxy-benzyl)-5H-furan-2-one], for which the IC50 at human ETB receptor (setting [5]) is 1100 nM; against ETA [1] (setting [4]) it was 1.4 nM; against ETA [2] it was 0.26 nM. Besides, the Kb at ETA [3] (setting [6]) was 100 nM.

For the molecule `COc1ccc(C2(O)OC(=O)C(c3cc(OC)cc(OC)c3)=C2Cc2cccnc2)cc1` (centres unmarked) [Example 133, 3-(3,5-Dimethoxyphenyl)-5-hydroxy-5-(4-methoxyphenyl)-4-pyridin-3methyl-5H-furan-2-one], the IC50 at human ETB receptor (setting [5]) stood at 6800 nM; on ETA [1] (setting [4]), 30 nM; against ETA [2] it was 76 nM.

Regarding `COc1ccc(C2(O)OC(=O)C(c3cc(OC)cc(OC)c3)=C2Cc2cccc(C(F)(F)F)c2)cc1` (centres unmarked) [Example 128, 3-(3,5-Dimethoxyphenyl)-5-hydroxy-5-(4-methoxyphenyl)-4-(3-trifluoromethylbenzyl)-5H-furan-2-one], the values for the IC50 on human ETB receptor (setting [5]), against ETA [1] (setting [4]) and against ETA [2] were 1600 nM, 23 nM and 210 nM, respectively. The Kb on ETA [3] (setting [6]) was 1260 nM.

Consider `COc1ccc(C2(O)OC(=O)C(c3cc(OC)cc(OC)c3)=C2Cc2cccc(Cl)c2)cc1` (centres unmarked) [Example 127, 4-(3-Chlorobenzyl)-3-(3,5-dimethoxyphenyl)-5-hydroxy-5-(4-methoxyphenyl)-5H -furan-2-one], for which the IC50 at human ETB receptor (setting [5]) worked out at 1200 nM; against ETA [1] (setting [4]), 13 nM; at ETA [2], 150 nM. The Kb at ETA [3] (setting [6]) was 631 nM.

Take `COc1ccc(C2(O)OC(=O)C(c3ccc4c(c3)OCO4)=C2Cc2cccc(C)c2)cc1` (centres unmarked) [Example 90, 3-Benzo[1,3]dioxol-5-yl-5-hydroxy-5-(4-methoxyphenyl)-4-(3-methylbenzyl)-5H -furan-2-one]: the IC50 at human ETB receptor (setting [5]) was 3500 nM; against ETA [1] (setting [4]), 20 nM; against ETA [2] it was 88 nM.

For `COc1ccc(C2(O)OC(=O)C(c3cc(OC)cc(OC)c3)=C2Cc2ccc(OC(C)C)c(OC)c2)cc1` (centres unmarked) [Example 389, 3-(3,5-Dimethoxy-phenyl)-5-hydroxy-4-(4-isopropoxy-3-methoxy-benzyl)-5-(4-methoxy-phenyl)-5H-furan-2-one], the values for the IC50 on human ETB receptor (setting [5]), at ETA [1] (setting [4]) and at ETA [2] were 1100 nM, 3.6 nM and 2.4 nM, respectively.

With `COc1ccc(C(=O)/C(Cc2cc(OC)c(OC)c(OC)c2)=C(\C(=O)O)c2ccc3c(c2)OCO3)cc1` [Example 354, Sodium 2-Benzo[1,3]dioxol-5-yl-4-(4-methoxy-phenyl)-4-oxo-3-(3,4,5-trimethoxy-benzyl)-but-2-enoate], the IC50 was 910 nM at human ETB receptor (ERBA-B IC50, human cloned receptor data); 0.8 nM against ETA [1] (setting [4]); less than 1 nM at ETA [2]. Also, at ETA [3], the Kb is 31.6 nM.

Regarding `COC(=O)c1ccc(CC2=C(c3ccc4c(c3)OCO4)C(=O)OC2(O)c2ccc(OC)cc2)cc1` (centres unmarked) [Example 182, 4-[4-Benzo[1,3]dioxol-5-yl-2-hydroxy-2-(4-methoxyphenyl)-5-oxo-2,5-dihydrof uran-3-ylmethyl]benzoic acid methyl ester], the values for the IC50 at human ETB receptor (setting [5]), against ETA [1] (setting [4]) and against ETA [2] were 2000 nM, 16 nM and 50 nM, respectively.

Regarding `COc1ccc(C2(O)OC(=O)C(c3ccc4c(c3)OCO4)=C2Cc2cccnc2)cc1` (centres unmarked) [Example 160, 3-Benzo[1,3]dioxol-5-yl-5-hydroxy-5-(4-methoxyphenyl)-4-pyridin-3-ylmethyl-5H-furan-2-one], the IC50 against ETA [1] (setting [4]) turned out to be 350 nM; against ETA [2] it was 55 nM.

In the case of `COc1ccc(C2(O)OC(=O)C(c3ccc4c(c3)OCO4)=C2Cc2ccc(OC)c(C)c2)cc1` (centres unmarked) [Example 89, 3-Benzo[1,3]dioxol-5-yl-5-hydroxy-4-(4-methoxy-3-methylbenzyl)-5-(4-methoxyphenyl)-5H-furan-2-one], at ETA [3] (ET-1, rabbit femoral artery), the “VERA-A pA2” value came to 6.3. Also, the IC50 on ETA [1] (setting [7]) was 6 nM; on ETA [2] (setting [8]) it was 39 nM.

Consider `COc1ccc(C2(O)OC(=O)C(c3ccc4c(c3)OCO4)=C2Cc2ccc(N(C)C)cc2)cc1` (centres unmarked) [Example 85, 3-Benzo[1,3]dioxol-5-yl-4-(4-dimethylaminobenzyl)-5-hydroxy-5-(4-methoxyphenyl)-5H-furan-2-one], for which the IC50 turned out to be 1600 nM at human ETB receptor (setting [5]), 23 nM on ETA [1] (setting [4]) and 200 nM on ETA [2]. For the same molecule, the Kb on ETA [3] (setting [6]) is 398 nM.
